Bridge positions count the residues as written; N and C are the ends. Square brackets hold non-standard residues; d marks the D form. Peptide text beside a SMILES is read from it. * marks the point of attachment. hPhe(3-Cl-4-CF3) = N[C@@H](CCc1ccc(C(F)(F)F)c(Cl)c1)C(=O)O; hPhe(3-F,4-CF3) = N[C@@H](CCc1ccc(C(F)(F)F)c(F)c1)C(=O)O; Piperazinyl(4-(3-oxetanyl)) = C1OCC1N1CCN(*)CC1; NMePhe(3-Me) = CN[C@@H](Cc1cccc(C)c1)C(=O)O; NMePhe(4-Me) = CN[C@@H](Cc1ccc(C)cc1)C(=O)O; NMePhe(3-F) = CN[C@@H](Cc1cccc(F)c1)C(=O)O; NMeGly(cPent) = CN[C@H](C(=O)O)C1CCCC1; dαMeGly(allyl) = C=CC[C@@](C)(N)C(=O)O; NMeCha = CN[C@@H](CC1CCCCC1)C(=O)O; NMeGly(cPr) = CN[C@H](C(=O)O)C1CC1; NMeChg = CN[C@H](C(=O)O)C1CCCCC1; NMeI = CC[C@H](C)[C@H](NC)C(=O)O; NMeD = CN[C@@H](CC(=O)O)C(=O)O; NMeL = CN[C@@H](CC(C)C)C(=O)O; NMeV = CN[C@H](C(=O)O)C(C)C; d(β3hA) = C[C@@H](N)CC(=O)O; NMeAbu = CC[C@H](NC)C(=O)O; NMeA = CN[C@@H](C)C(=O)O; Piperidide = C1CCN(*)CC1; Ac5c = NC1(C(=O)O)CCCC1; Aze = O=C(O)[C@@H]1CCN1; Ac4c = NC1(C(=O)O)CCC1; Sar = CNCC(=O)O
tested on: Human pancreatic cancer cell line AsPC-1 (G12D mutation Kras); experiment: AsPC-1 cell growth inhibition (AsPC-1 CGI); type: cell-based; conditions: read-out: AsPC-1 cell growth inhibition, 50% growth inhibitory concentration (IC50 value); 96 hours, CellTiter-Glo, values classified in ranges
Protocol: Test compounds were serially dilated with dimethyl sulfoxide, and 200 nL was then dispensed to a U-bottom 96-well plate using Labcyte Echo. […] The cell suspension was dispensed to a. plate containing a test compound at 100 μL per well and incubated at 37° C. in a 5% carbon dioxide gas incubator. 96 hours later, 80 μL of CellTiter-Glo (Promega) was added to each well and fluorescence was measured.

**Q.** How did the IC50 turn out when `CC[C@H](C)[C@@H]1NC(=O)[C@H](CC(C)C)N(C)C(=O)C[C@@H](C(=O)N2CCN(C3COC3)CC2)NC(=O)[C@H]([C@@H](C)CC)N(C)C(=O)C2(CCCC2)NC(=O)[C@@H]2CCCN2C(=O)[C@H](CCc2ccc(C(F)(F)F)c(Cl)c2)NC(=O)CN(C)C(=O)[C@H](CC2CCCCC2)N(C)C(=O)CN(C)C(=O)CN(C)C1=O` [Compound 1191] ([NMeL]I[Sar][Sar][NMeCha][Sar][hPhe(3-Cl-4-CF3)]P[Ac5c][NMeI]D-{Piperazinyl(4-(3-oxetanyl))}; lactam N-11) was run?
**A.** > 0.5 µM

**Q.** Which IC50 does the source give for `CC[C@H](C)[C@@H]1NC(=O)[C@H](CC(C)C)N(C)C(=O)C[C@@H](C)NC(=O)[C@H](CC)N(C)C(=O)C2(CCCC2)NC(=O)[C@@H]2CCCN2C(=O)[C@H](CCc2ccc(C(F)(F)F)c(F)c2)NC(=O)CN(C)C(=O)[C@H](CC2CCCCC2)N(C)C(=O)CN(C)C(=O)CN(C)C1=O` [Compound 1469] (cyclo([Ac5c][NMeAbu][d(β3hA)][NMeL]I[Sar][Sar][NMeCha][Sar][hPhe(3-F,4-CF3)]P)) here?
**A.** > 0.5 µM

**Q.** For `CC[C@H](C)[C@@H]1NC(=O)[C@H](CC(C)C)N(C)C(=O)C[C@@H](C(=O)N2CCCCC2)N(C)C(=O)[C@H](C(C)C)N(C)C(=O)C2(CCCC2)NC(=O)[C@@H]2CCCN2C(=O)[C@H](CCc2ccc(C(F)(F)F)c(Cl)c2)NC(=O)CN(C)C(=O)[C@H](CC2CCCCC2)N(C)C(=O)[C@@H]2CCN2C(=O)[C@H](C2CC2)N(C)C1=O` [Compound 1553] ([NMeL]I[NMeGly(cPr)][Aze][NMeCha][Sar][hPhe(3-Cl-4-CF3)]P[Ac5c][NMeV][NMeD]-Piperidide; lactam N-11), which IC50 is on record?
**A.** > 0.5 µM

**Q.** For `COC[C@@H]1NC(=O)[C@H](CC(C)C)N(C)C(=O)C[C@@H](C(=O)N2CCCCC2)N(C)C(=O)[C@H](C2CCCCC2)N(C)C(=O)C2(CCCC2)NC(=O)[C@@H]2CCCN2C(=O)[C@H](CCc2ccc(C(F)(F)F)c(Cl)c2)NC(=O)CN(C)C(=O)[C@H](CC2CCCCC2)N(C)C(=O)CN(C)C(=O)CN(C)C1=O` [Compound 148] ([NMeL]S(Me)[Sar][Sar][NMeCha][Sar][hPhe(3-Cl-4-CF3)]P[Ac5c][NMeChg][NMeD]-Piperidide; lactam N-11), which IC50 is on record?
**A.** > 0.5 µM

**Q.** With `C=CC[C@@]1(C)NC(=O)[C@@H]2CCCN2C(=O)[C@H](CCc2ccc(C(F)(F)F)c(Cl)c2)NC(=O)CN(C)C(=O)[C@H](CC2CCCCC2)N(C)C(=O)CN(C)C(=O)CN(C)C(=O)[C@H]([C@@H](C)CC)NC(=O)[C@H](CC(C)C)N(C)C(=O)C[C@@H](C)NC(=O)[C@H](C(C)C)N(C)C1=O` [Compound 665] (cyclo(I[Sar][Sar][NMeCha][Sar][hPhe(3-Cl-4-CF3)]P[dαMeGly(allyl)][NMeV][d(β3hA)][NMeL])) as the compound, how does the IC50 read?
**A.** > 0.5 µM

**Q.** How did the IC50 turn out when `CC[C@H](C)[C@@H]1NC(=O)[C@H](C)N(C)C(=O)C[C@@H](C)NC(=O)[C@H](C2CCCC2)N(C)C(=O)C2(CCC2)NC(=O)[C@@H]2CCCN2C(=O)[C@H](CCc2ccc(C(F)(F)F)c(Cl)c2)NC(=O)CN(C)C(=O)[C@H](CC2CCCCC2)N(C)C(=O)CN(C)C(=O)CN(C)C1=O` [Compound 1506] (cyclo([Ac4c][NMeGly(cPent)][d(β3hA)][NMeA]I[Sar][Sar][NMeCha][Sar][hPhe(3-Cl-4-CF3)]P)) was run?
**A.** > 0.5 µM

**Q.** How did the IC50 turn out when `CC[C@H](C)[C@@H]1NC(=O)[C@H](CC(C)C)N(C)C(=O)C[C@@H](C(=O)N(C)C)N(C)C(=O)[C@H](C2CCCC2)N(C)C(=O)C2(CCCC2)NC(=O)[C@H](Cc2cccc(F)c2)N(C)C(=O)[C@H](CCc2ccc(C(F)(F)F)c(Cl)c2)NC(=O)CN(C)C(=O)[C@H](CC2CCCCC2)N(C)C(=O)[C@@H]2CCN2C(=O)[C@H](C)N(C)C1=O` [Compound 95] ([NMeL]I[NMeA][Aze][NMeCha][Sar][hPhe(3-Cl-4-CF3)][NMePhe(3-F)][Ac5c][NMeGly(cPent)][NMeD]-NMe2; lactam N-11) was run?
**A.** > 0.5 µM

**Q.** For `CC[C@H](C)[C@@H]1NC(=O)[C@H](CC(C)C)N(C)C(=O)C[C@@H](C)NC(=O)[C@H](C2CCCC2)N(C)C(=O)[C@H](C)NC(=O)[C@@H]2CCCN2C(=O)[C@H](CCc2ccc(C(F)(F)F)c(Cl)c2)NC(=O)CN(C)C(=O)[C@H](Cc2ccc(C)cc2)N(C)C(=O)[C@@H]2CCN2C(=O)[C@H](C)N(C)C1=O` [Compound 1221] (cyclo(A[NMeGly(cPent)][d(β3hA)][NMeL]I[NMeA][Aze][NMePhe(4-Me)][Sar][hPhe(3-Cl-4-CF3)]P)), which IC50 is on record?
**A.** > 0.5 µM

**Q.** `CC[C@H](C)[C@@H]1NC(=O)[C@H](CC(C)C)N(C)C(=O)C[C@@H](C)NC(=O)[C@H](C(C)C)N(C)C(=O)C2(CCCC2)NC(=O)[C@@H]2CCCN2C(=O)[C@H](CCc2ccc(C(F)(F)F)c(Cl)c2)NC(=O)CN(C)C(=O)[C@H](Cc2cccc(C)c2)N(C)C(=O)CN(C)C(=O)CN(C)C1=O` [Compound 1547] (cyclo([Ac5c][NMeV][d(β3hA)][NMeL]I[Sar][Sar][NMePhe(3-Me)][Sar][hPhe(3-Cl-4-CF3)]P)) was tested. Which IC50 did it give?
**A.** > 0.5 µM

**Q.** `CC[C@H](C)[C@@H]1NC(=O)[C@H](CC(C)C)N(C)C(=O)C[C@@H](C(=O)N2CCCCC2)N(C)C(=O)[C@H](C2CCCCC2)N(C)C(=O)C2(CCCC2)NC(=O)[C@@H]2CCCN2C(=O)[C@H](CCc2ccc(C(F)(F)F)c(Cl)c2)NC(=O)CN(C)C(=O)[C@H](C)N(C)C(=O)CN(C)C(=O)CN(C)C1=O` [Compound 1681] ([NMeL]I[Sar][Sar][NMeA][Sar][hPhe(3-Cl-4-CF3)]P[Ac5c][NMeChg][NMeD]-Piperidide; lactam N-11) was tested. Which IC50 did it give?
**A.** > 0.5 µM

— patent US20240148821A1, “PHARMACEUTICAL USE OF CYCLIC PEPTIDE COMPOUND” (CHUGAI SEIYAKU KABUSHIKI KAISHA, priority 2021, published 2024)
